Among the data in PubChem BioAssay (NCI) are GI50 and TGI values, retold here.

Some test systems named below: HL-60(TB) leukemia; K-562 leukemia; MALME-3M melanoma; MOLT-4 leukemia; NCI-H522 lung; U251 CNS; UACC-62 melanoma; LOX IMVI melanoma; OVCAR-5 ovarian.
Assay in all cases: NCI anticancer screen, dose series, 48 h

Structures are written as SMILES. Where “and” joins values, the source holds several entries; their conditions need not be identical. Identical values can stand only once.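 A five-concentration, 48-hour dose response in 96-well plates underlies each endpoint, interpolated linearly between surrounding concentrations. GI50 = concentration required for 50% inhibition of growth. TGI: total growth inhibition.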

For the molecule `CCCCN1C(=O)/C(=c2\sc3n(c2=O)C2C(NN=3)N(CC)C(=O)N2CC)c2ccccc21` (centres undefined), the GI50 is 1050 nM with HL-60(TB) leukemia; 542 nM in the assay on K-562 leukemia; 639 nM with MALME-3M melanoma; 2730 nM in the assay on MOLT-4 leukemia; 508 nM with NCI-H522 lung; 773 nM in the assay on U251 CNS. Moreover, the GI50 in the assay on UACC-62 melanoma is 502 nM. The TGI with HL-60(TB) leukemia is 3.46 µM; with K-562 leukemia it was over 100 µM; in the assay with MALME-3M melanoma, 3.27 µM; with MOLT-4 leukemia it was over 100 µM; in the assay on NCI-H522 lung, 3.44 µM; with U251 CNS it was 3.39 µM. This molecule also gave a TGI in the assay on UACC-62 melanoma of 3.55 µM.
Regarding `O=C1C=C(Nc2ccc(S(=O)(=O)Nc3ncccn3)cc2)c2ccccc2C1=O`, the TGI was 72.7 µM in the assay with HL-60(TB) leukemia; 49.4 µM with K-562 leukemia; 30 µM with LOX IMVI melanoma; 43.9 µM with MALME-3M melanoma; over 100 µM in the assay with MOLT-4 leukemia; 32 µM in the assay on NCI-H522 lung. Further, the TGI was 34.4 µM in the assay on OVCAR-5 ovarian, 31.5 µM with U251 CNS and 32.9 µM in the assay with UACC-62 melanoma.
Consider `CCCCCCCCCCOC(=O)c1cc[n+](C)cc1`, for which the TGI in the assay on HL-60(TB) leukemia worked out at 35.4 µM; in the assay on K-562 leukemia it was 34.2 µM; in the assay with LOX IMVI melanoma, 32.6 µM; with MALME-3M melanoma it was 30.7 µM; with MOLT-4 leukemia it was 37.5 µM; in the assay on NCI-H522 lung, 30 µM. Also, the TGI in the assay on OVCAR-5 ovarian amounted to 26.8 µM; in the assay on U251 CNS, 29.1 µM; with UACC-62 melanoma, 34 µM.
As to `C/C(CC(=O)Nc1ccc(NC(=O)C/C(C)=N\NC(N)=O)cc1)=N/NC(N)=O`, the TGI in the assay with HL-60(TB) leukemia was over 100 µM; in the assay on K-562 leukemia, over 100 µM; in the assay on LOX IMVI melanoma it was over 60.1 µM; with MALME-3M melanoma, over 100 µM; with MOLT-4 leukemia, 97.8 µM; in the assay on NCI-H522 lung, over 100 µM. In addition, the TGI in the assay on OVCAR-5 ovarian, in the assay with U251 CNS and with UACC-62 melanoma was over 100 µM throughout.
Consider `COc1cc(C2c3cc4c(cc3[C@@H](N(C)c3ccc(N(C)C)cc3)C3COC(=O)C23)OCO4)cc(OC)c1O` (some centres undefined), for which the TGI is 7.84 µM with HL-60(TB) leukemia; 30.6 µM with K-562 leukemia; 16 µM in the assay on LOX IMVI melanoma; 25.8 µM in the assay on MOLT-4 leukemia; 0.553 µM in the assay with NCI-H522 lung; 31.3 µM in the assay with OVCAR-5 ovarian. The TGI came out at 1.45 µM in the assay on U251 CNS and 23.1 µM with UACC-62 melanoma.
As for `CCN(CC)c1ccc(N=Nc2ccc(-c3nc4cccn(C)c-4n3)cc2)cc1`, the TGI in the assay with HL-60(TB) leukemia was 4.79 µM; in the assay with K-562 leukemia it was 11.9 µM; with LOX IMVI melanoma it was 6.42 µM; in the assay on MALME-3M melanoma it was 26.8 µM; in the assay with MOLT-4 leukemia, 9.32 µM; with NCI-H522 lung it was 19.9 µM. The TGI in the assay with OVCAR-5 ovarian was 26.3 µM; in the assay on U251 CNS it was 16.3 µM; in the assay on UACC-62 melanoma it was 27.1 µM.
In the case of `COC(=O)CC(C(C(C)=O)C(=O)OCc1ccccc1)N1C(=O)OC(c2ccccc2)C1c1ccccc1` (centres undefined), the TGI in the assay with HL-60(TB) leukemia is over 100 µM; with K-562 leukemia, over 100 µM; in the assay with LOX IMVI melanoma, over 100 µM; in the assay on MALME-3M melanoma, over 100 µM; in the assay on MOLT-4 leukemia it was over 100 µM; in the assay with NCI-H522 lung, 65.8 µM and > 100 µM. In addition, the TGI in the assay with OVCAR-5 ovarian, in the assay with U251 CNS and in the assay on UACC-62 melanoma was over 100 µM throughout. For the same molecule, the GI50 in the assay with OVCAR-5 ovarian was > 100 µM and 34.3 µM.
In the case of `C1CC2=C(C1)C1=S(S2)SC2=C1CCC2`, the TGI in the assay with HL-60(TB) leukemia, in the assay on K-562 leukemia, in the assay on LOX IMVI melanoma, in the assay with MALME-3M melanoma, in the assay with MOLT-4 leukemia and in the assay on NCI-H522 lung was over 100 µM in each case. Moreover, the TGI in the assay on OVCAR-5 ovarian, in the assay with U251 CNS and in the assay on UACC-62 melanoma was over 100 µM each time.
Take `CCC[CH2][Sn]([CH2]CCC)([O]C(=O)c1cccc(F)c1F)[O]C(=O)c1cccc(F)c1F`: the GI50 is 420 nM in the assay with HL-60(TB) leukemia; 207 nM in the assay on K-562 leukemia; 0.519 µM with LOX IMVI melanoma; 585 nM in the assay on MALME-3M melanoma; 336 nM with MOLT-4 leukemia; 133 nM in the assay with NCI-H522 lung. Further, the GI50 in the assay with OVCAR-5 ovarian was 1.88 µM; in the assay on U251 CNS, 675 nM; in the assay on UACC-62 melanoma, 1220 nM. For the same molecule, the TGI with HL-60(TB) leukemia turned out to be 2.4 µM; with K-562 leukemia, 1.08 µM; with LOX IMVI melanoma, 1.74 µM; in the assay with MALME-3M melanoma, 1.89 µM; in the assay with MOLT-4 leukemia it was 2.04 µM; in the assay with NCI-H522 lung it was 0.277 µM. The figures for the TGI in the assay with OVCAR-5 ovarian, with U251 CNS and with UACC-62 melanoma were 3.28 µM, 1.93 µM and 2.46 µM, respectively.
As to `CC1=C(C(=O)Nc2ccccc2)C(c2cc(Cl)cc(Cl)c2)C(C(=O)Nc2ccccc2)=C(C)N1`, the TGI was found to be 6.52 µM with HL-60(TB) leukemia; 13.6 µM with K-562 leukemia; 24.6 µM with LOX IMVI melanoma; 27.9 µM with MALME-3M melanoma; 18.1 µM in the assay on MOLT-4 leukemia; 13.3 µM with NCI-H522 lung. Besides, the results for the TGI in the assay with OVCAR-5 ovarian, in the assay with U251 CNS and in the assay on UACC-62 melanoma were 39 µM, 12.9 µM and 22.2 µM, respectively.
On to `C/C(O)=C(\N=O)C(=O)NCc1ccccc1`, for which the TGI in the assay on HL-60(TB) leukemia is over 100 µM; in the assay with K-562 leukemia, over 100 µM; in the assay on LOX IMVI melanoma, 36.6 µM; in the assay with MALME-3M melanoma, over 100 µM; in the assay on MOLT-4 leukemia, over 100 µM; in the assay with NCI-H522 lung, over 100 µM. In addition, the TGI in the assay with OVCAR-5 ovarian, in the assay on U251 CNS and with UACC-62 melanoma was over 100 µM in each case.
Regarding `O=C([CH-]C(=O)c1ccccc1)c1ccccc1.O=C([CH-]C(=O)c1ccccc1)c1ccccc1.O=C([CH-]C(=O)c1ccccc1)c1ccccc1.[Cl-].[Zr+4]`, the GI50 was 8020 nM with K-562 leukemia; 26.7 µM in the assay on LOX IMVI melanoma; 19500 nM in the assay on MALME-3M melanoma; 9750 nM in the assay with MOLT-4 leukemia; 11400 nM in the assay with NCI-H522 lung; 53.8 µM with OVCAR-5 ovarian. The GI50 in the assay on U251 CNS is 12100 nM; in the assay on UACC-62 melanoma, 20300 nM. Besides, the TGI is 25.5 µM in the assay with K-562 leukemia; over 100 µM with LOX IMVI melanoma; 60.4 µM in the assay on MALME-3M melanoma; over 100 µM with MOLT-4 leukemia; 46.6 µM with NCI-H522 lung; over 100 µM with OVCAR-5 ovarian. For the same molecule, the values for the TGI in the assay on U251 CNS and in the assay on UACC-62 melanoma were over 100 µM and 91.2 µM, respectively.
